The source made the active and inactive calls. The calls are words filed in the database; no cut-off is given here.
What was measured:
[1] = target: T1, NAD-dependent protein deacetylase sirtuin-2 (Homo sapiens) (UniProt Q8IXJ6); assay: Inhibition of SIRT2 in human MCF7 cells assessed as tubulin hyperacetylation at 10 uM after 16 hrs by Western blot; type: cell-based
T1 sequence (whole entry): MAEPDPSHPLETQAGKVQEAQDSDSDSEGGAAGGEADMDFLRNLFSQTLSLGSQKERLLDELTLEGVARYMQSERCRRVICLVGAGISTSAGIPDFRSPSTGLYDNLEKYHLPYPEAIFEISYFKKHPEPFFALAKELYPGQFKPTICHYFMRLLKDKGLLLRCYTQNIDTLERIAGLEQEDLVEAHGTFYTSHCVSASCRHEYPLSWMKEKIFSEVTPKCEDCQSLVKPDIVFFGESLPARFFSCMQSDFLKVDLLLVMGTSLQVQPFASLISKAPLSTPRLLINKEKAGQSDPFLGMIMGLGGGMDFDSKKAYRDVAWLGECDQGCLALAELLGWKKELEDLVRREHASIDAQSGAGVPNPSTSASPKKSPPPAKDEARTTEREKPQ

[2] = target: T2, NAD-dependent protein deacetylase sirtuin-3, mitochondrial (Homo sapiens) (UniProt Q9NTG7); assay: Inhibition of human recombinant N-terminally 6X-His-tagged SIRT3 at 50 uM after 4 hrs in presence of NAD+ by fluorescent deacetylase assay
T2 sequence (whole entry): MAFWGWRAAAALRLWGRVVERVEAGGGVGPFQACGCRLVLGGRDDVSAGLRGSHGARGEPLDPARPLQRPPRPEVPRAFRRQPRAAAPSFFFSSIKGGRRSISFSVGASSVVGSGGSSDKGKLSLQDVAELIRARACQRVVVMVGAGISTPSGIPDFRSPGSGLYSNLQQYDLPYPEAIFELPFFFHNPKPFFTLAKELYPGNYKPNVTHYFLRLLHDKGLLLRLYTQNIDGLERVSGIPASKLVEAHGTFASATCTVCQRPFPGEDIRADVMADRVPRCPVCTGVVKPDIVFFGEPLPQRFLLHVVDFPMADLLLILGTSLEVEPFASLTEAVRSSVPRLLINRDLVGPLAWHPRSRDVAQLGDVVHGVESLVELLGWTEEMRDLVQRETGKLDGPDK

[3] = target: T1, NAD-dependent protein deacetylase sirtuin-2 (Homo sapiens); assay: Inhibition of human recombinant N-terminally 6X-His-tagged SIRT2 at 50 uM after 4 hrs in presence of NAD+ by fluorescent deacetylase assay
[4] = target: T3, NAD-dependent protein deacetylase sirtuin-1 (Homo sapiens) (UniProt Q96EB6); assay: Inhibition of human recombinant N-terminally GST-tagged SIRT1 at 50 uM after 4 hrs in presence of NAD+ by fluorescent deacetylase assay
T3 sequence (whole entry): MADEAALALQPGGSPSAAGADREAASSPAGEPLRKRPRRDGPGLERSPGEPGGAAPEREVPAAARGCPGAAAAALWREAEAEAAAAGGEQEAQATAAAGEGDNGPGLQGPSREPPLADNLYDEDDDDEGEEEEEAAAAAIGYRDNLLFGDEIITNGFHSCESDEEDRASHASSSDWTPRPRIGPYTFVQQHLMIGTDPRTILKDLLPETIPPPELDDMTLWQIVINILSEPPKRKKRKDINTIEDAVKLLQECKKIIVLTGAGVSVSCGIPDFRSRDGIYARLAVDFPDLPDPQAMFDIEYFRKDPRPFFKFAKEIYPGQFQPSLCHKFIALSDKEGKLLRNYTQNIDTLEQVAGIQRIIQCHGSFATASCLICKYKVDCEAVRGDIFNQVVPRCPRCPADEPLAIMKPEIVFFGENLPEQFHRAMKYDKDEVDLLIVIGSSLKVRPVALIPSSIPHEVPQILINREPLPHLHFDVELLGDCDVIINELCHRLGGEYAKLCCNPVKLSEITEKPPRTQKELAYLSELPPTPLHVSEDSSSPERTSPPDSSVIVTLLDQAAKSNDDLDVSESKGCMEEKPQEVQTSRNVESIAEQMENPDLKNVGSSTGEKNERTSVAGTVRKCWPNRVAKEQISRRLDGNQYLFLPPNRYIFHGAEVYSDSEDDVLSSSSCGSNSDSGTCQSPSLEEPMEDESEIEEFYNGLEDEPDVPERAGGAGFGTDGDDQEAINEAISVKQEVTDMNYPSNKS

[5] = target: T1, NAD-dependent protein deacetylase sirtuin-2 (Homo sapiens); assay: Inhibition of SIRT2 in human HepG2 cells assessed as alpha-tubulin hyperacetylation after 6 hrs by ELISA; type: cell-based
[6] = target: T4, NAD-dependent protein deacetylase sirtuin-2 (Homo sapiens, UniProt Q8IXJ6); assay: Inhibition of human recombinant N-terminally 6X-His-tagged SIRT2 after 4 hrs in presence of NAD+ by fluorescent deacetylase assay
T4 sequence (Q8IXJ6 whole entry): T1 sequence (whole entry)

HepG2 = assay: Toxicity in human HepG2 cells after 6 hrs; type: cell-based; details: hepg2, 6 h
[7] = target: T5, NAD-dependent protein deacetylase sirtuin-1 (Homo sapiens, UniProt Q96EB6); assay: Inhibition of human recombinant N-terminally GST-tagged SIRT1 after 4 hrs in presence of NAD+ by fluorescent deacetylase assay
T5 sequence (Q96EB6 whole entry): T3 sequence (whole entry)

[8] = target: T1, NAD-dependent protein deacetylase sirtuin-2 (Homo sapiens); assay: Inhibition of SIRT2 in human MCF7 cells assessed as tubulin hyperacetylation at 0.1 uM after 16 hrs by Western blot; type: cell-based

SMILES | inhibition [2] [%] | inhibition [3] [%] | inhibition [4] [%] | other results
Cn1cc(C2=C(c3cn(CCCSC(=N)N)c4ccccc34)C(=O)NC2=O)c2ccccc21 |  |  |  | Activity [1]: Active
O=C1Nc2c(ccc(Cl)c2Cl)/C1=C\c1ccccn1 | < 10 | 20.6 | 22.7 | 
O=C1Nc2c(ccc(Cl)c2Cl)/C1=C/c1cc(C(F)(F)F)cc(C(F)(F)F)c1 | < 10 |  | 19.8 | 
O=C1Nc2c(ccc(Cl)c2Cl)/C1=C/c1cc(Br)c(O)c(Br)c1 |  |  |  | Activity [5]: Active; IC50 [6]: 28.4 µM; Activity (HepG2): Non-toxic; IC50 [7]: 40.6 µM
CN(C)c1ccc(/C=C2\C(=O)Nc3c2ccc(Cl)c3Cl)cc1 | < 10 | < 10 | 20.7 | 
CCN(CC)CCNC(=O)c1c(C)[nH]c(/C=C2\C(=O)Nc3ccc(F)cc32)c1C [SUNITINIB] | 26.4 |  | < 10 | IC50 [6]: 123 µM
CC(/C=C/C(=O)NO)=C\[C@@H](C)C(=O)c1ccc(N(C)C)cc1 |  |  |  | Activity [8]: Active
O=C1Nc2c(ccc(Cl)c2Cl)/C1=C/c1ccc(F)cc1 | < 10 |  | 24.4 | Activity [5]: inactive; Activity (HepG2): Non-toxic
O=C1Nc2c(ccc(Cl)c2Cl)/C1=C/c1ccc([N+](=O)[O-])cc1 | < 10 |  | 30.2 | IC50 [6]: 10.4 µM
Cn1c2c(Cl)c(Cl)ccc2c2cc[nH]c(=O)c21 [BAUERINE C] | < 10 |  | < 10 | 
O=C1Nc2c(ccc(Cl)c2Cl)/C1=C/c1ccc(C(F)(F)F)cc1 | < 10 | 18.3 | 45.4 | 

Now from value to compound, other results behind:

inhibition [2] [%] | inhibition [3] [%] | inhibition [4] [%] | SMILES | other results
< 10 | < 10 | < 10 | COc1cc(/C=C2\C(=O)Nc3c2ccc(Cl)c3Cl)cc(OC)c1OC | 
< 10 |  | 19.9 | Cc1cc(C)c(/C=C2\C(=O)Nc3c2ccc(Cl)c3Cl)[nH]1 | 
< 10 | 16.5 | 19.6 | O=C1Nc2c(ccc(Cl)c2Cl)/C1=C\c1ccncc1 | 
13.5 | 34.7 | < 10 | O=C1Nc2c(ccc(Cl)c2Cl)/C1=C/c1ccc(O)cc1 | 

Source: ChEMBL document CHEMBL1156803, “Novel 3-arylideneindolin-2-ones as inhibitors of NAD+ -dependent histone deacetylases (sirtuins)” (J Med Chem, 2010)
